From PubChem BioAssay (NCI)
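The compound was tested at five concentrations on cells cultured in 96-well plates, with a 48-hour exposure period. At the TGI there is no net growth.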

How the values were obtained:
Assay in all cases: DTP human tumour cell line panel, 48 h
M14 melanoma = system: M14 melanoma
HS 578T breast = system: HS 578T breast
HCC-2998 colon = system: HCC-2998 colon
NCI-H23 lung = system: NCI-H23 lung
SK-MEL-5 melanoma = system: SK-MEL-5 melanoma
A498 renal = system: A498 renal
SF-268 CNS = system: SF-268 CNS
CAKI-1 renal = system: CAKI-1 renal
RPMI-8226 leukemia = system: RPMI-8226 leukemia
ACHN renal = system: ACHN renal
SNB-19 CNS = system: SNB-19 CNS
SF-295 CNS = system: SF-295 CNS
A549 NSCLC = system: A549 NSCLC
NCI-H460 lung = system: NCI-H460 lung
EKVX NSCLC = system: EKVX NSCLC
T-47D breast = system: T-47D breast
UACC-62 melanoma = system: UACC-62 melanoma
SK-OV-3 ovarian = system: SK-OV-3 ovarian
DU-145 prostate = system: DU-145 prostate
BT-549 breast = system: BT-549 breast
LOX IMVI melanoma = system: LOX IMVI melanoma
MDA-MB-435 = system: MDA-MB-435
CCRF-CEM leukemia = system: CCRF-CEM leukemia
SR leukemia = system: SR leukemia
U251 CNS = system: U251 CNS
SK-MEL-2 melanoma = system: SK-MEL-2 melanoma
HCT-15 colon = system: HCT-15 colon
SK-MEL-28 melanoma = system: SK-MEL-28 melanoma
HL-60(TB) leukemia = system: HL-60(TB) leukemia
PC-3 prostate = system: PC-3 prostate
OVCAR-4 ovarian = system: OVCAR-4 ovarian
OVCAR-8 ovarian = system: OVCAR-8 ovarian
TK-10 renal = system: TK-10 renal
SW-620 colon = system: SW-620 colon
UO-31 renal = system: UO-31 renal
MALME-3M melanoma = system: MALME-3M melanoma
MDA-N = system: MDA-N
MCF7 breast = system: MCF7 breast
SN12C renal = system: SN12C renal
MOLT-4 leukemia = system: MOLT-4 leukemia
RXF 393 renal = system: RXF 393 renal
HOP-92 NSCLC = system: HOP-92 NSCLC
COLO 205 colon = system: COLO 205 colon
HOP-62 NSCLC = system: HOP-62 NSCLC
786-0 renal = system: 786-0 renal
HCT-116 colon = system: HCT-116 colon
NCI/ADR-RES ovarian = system: NCI/ADR-RES ovarian
NCI-H522 lung = system: NCI-H522 lung
OVCAR-3 ovarian = system: OVCAR-3 ovarian
KM12 colon = system: KM12 colon
IGROV1 ovarian = system: IGROV1 ovarian
MDA-MB-231 breast = system: MDA-MB-231 breast
OVCAR-5 ovarian = system: OVCAR-5 ovarian
UACC-257 melanoma = system: UACC-257 melanoma
SNB-75 CNS = system: SNB-75 CNS
K-562 leukemia = system: K-562 leukemia
SF-539 CNS = system: SF-539 CNS
HT29 colon = system: HT29 colon
NCI-H226 lung = system: NCI-H226 lung

## OCCN(CCO)CCn1cnc2c(NCc3ccccc3)ncnc21
M14 melanoma
  TGI: > 100 µM
HS 578T breast
  TGI: > 100 µM
HCC-2998 colon
  TGI: > 100 µM
NCI-H23 lung
  TGI: > 100 µM
SK-MEL-5 melanoma
  TGI: > 100 µM
A498 renal
  TGI: > 100 µM
SF-268 CNS
  TGI: > 100 µM
CAKI-1 renal
  TGI: > 100 µM
RPMI-8226 leukemia
  TGI: > 100 µM
ACHN renal
  TGI: > 100 µM
SNB-19 CNS
  TGI: > 100 µM
SF-295 CNS
  TGI: > 100 µM
A549 NSCLC
  TGI: > 100 µM
NCI-H460 lung
  TGI: > 100 µM
EKVX NSCLC
  TGI: > 100 µM
T-47D breast
  TGI: > 100 µM
UACC-62 melanoma
  TGI: > 100 µM
SK-OV-3 ovarian
  TGI: > 100 µM
DU-145 prostate
  TGI: > 100 µM
BT-549 breast
  TGI: > 100 µM
LOX IMVI melanoma
  TGI: > 100 µM
MDA-MB-435
  TGI: > 100 µM
CCRF-CEM leukemia
  TGI: > 100 µM
SR leukemia
  TGI: > 100 µM
U251 CNS
  TGI: > 100 µM
SK-MEL-2 melanoma
  TGI: > 100 µM
HCT-15 colon
  TGI: > 100 µM
SK-MEL-28 melanoma
  TGI: > 100 µM
HL-60(TB) leukemia
  TGI: > 100 µM
PC-3 prostate
  TGI: > 100 µM
OVCAR-4 ovarian
  TGI: > 100 µM
OVCAR-8 ovarian
  TGI: > 100 µM
TK-10 renal
  TGI: > 100 µM
SW-620 colon
  TGI: > 100 µM
UO-31 renal
  TGI: > 100 µM
MALME-3M melanoma
  TGI: > 100 µM
MDA-N
  TGI: > 100 µM
MCF7 breast
  TGI: > 100 µM
SN12C renal
  TGI: > 100 µM
MOLT-4 leukemia
  TGI: > 100 µM
RXF 393 renal
  TGI: > 100 µM
HOP-92 NSCLC
  TGI: > 100 µM
COLO 205 colon
  TGI: > 100 µM
HOP-62 NSCLC
  TGI: > 100 µM
786-0 renal
  TGI: > 100 µM
HCT-116 colon
  TGI: > 100 µM
NCI/ADR-RES ovarian
  TGI: > 100 µM
NCI-H522 lung
  TGI: > 100 µM
OVCAR-3 ovarian
  TGI: > 100 µM
KM12 colon
  TGI: > 100 µM
IGROV1 ovarian
  TGI: > 100 µM
MDA-MB-231 breast
  TGI: > 100 µM
OVCAR-5 ovarian
  TGI: > 100 µM
UACC-257 melanoma
  TGI: > 100 µM
SNB-75 CNS
  TGI: > 100 µM
K-562 leukemia
  TGI: > 100 µM
SF-539 CNS
  TGI: > 100 µM
HT29 colon
  TGI: > 100 µM
NCI-H226 lung
  TGI: > 100 µM

## CC(C)Oc1c(N(Cc2ccccc2)c2ccccc2C2SCCCS2)c(=O)c1=O
M14 melanoma
  TGI: 19.3 µM
HS 578T breast
  TGI: 32.6 µM
HCC-2998 colon
  TGI: 18.5 µM
NCI-H23 lung
  TGI: > 47.5 µM
SK-MEL-5 melanoma
  TGI: > 100 µM
A498 renal
  TGI: > 85.1 µM
SF-268 CNS
  TGI: > 100 µM
CAKI-1 renal
  TGI: > 100 µM
RPMI-8226 leukemia
  TGI: > 100 µM
ACHN renal
  TGI: > 100 µM
SNB-19 CNS
  TGI: > 100 µM
SF-295 CNS
  TGI: 5.67 µM
A549 NSCLC
  TGI: > 100 µM
NCI-H460 lung
  TGI: > 60.8 µM
EKVX NSCLC
  TGI: > 100 µM
T-47D breast
  TGI: > 100 µM
UACC-62 melanoma
  TGI: > 100 µM
SK-OV-3 ovarian
  TGI: > 73.4 µM
DU-145 prostate
  TGI: > 100 µM
BT-549 breast
  TGI: > 100 µM
LOX IMVI melanoma
  TGI: > 100 µM
MDA-MB-435
  TGI: 10.3 µM
CCRF-CEM leukemia
  TGI: > 100 µM
SR leukemia
  TGI: > 100 µM
U251 CNS
  TGI: > 100 µM
SK-MEL-2 melanoma
  TGI: 20.1 µM
HCT-15 colon
  TGI: > 56.5 µM
SK-MEL-28 melanoma
  TGI: > 100 µM
HL-60(TB) leukemia
  TGI: > 100 µM
PC-3 prostate
  TGI: 35.7 µM
OVCAR-4 ovarian
  TGI: > 100 µM
OVCAR-8 ovarian
  TGI: > 60.7 µM
TK-10 renal
  TGI: > 100 µM
SW-620 colon
  TGI: 8.2 µM
UO-31 renal
  TGI: > 100 µM
MALME-3M melanoma
  TGI: > 100 µM
MDA-N
  TGI: > 30.7 µM
MCF7 breast
  TGI: > 100 µM
SN12C renal
  TGI: > 100 µM
MOLT-4 leukemia
  TGI: > 100 µM
RXF 393 renal
  TGI: > 100 µM
HOP-92 NSCLC
  TGI: > 83.3 µM
COLO 205 colon
  TGI: 21.5 µM
HOP-62 NSCLC
  TGI: > 100 µM
786-0 renal
  TGI: > 100 µM
HCT-116 colon
  TGI: 59.3 µM
NCI/ADR-RES ovarian
  TGI: 4.7 µM
NCI-H522 lung
  TGI: 4.87 µM
OVCAR-3 ovarian
  TGI: 7.07 µM
KM12 colon
  TGI: 35.9 µM
IGROV1 ovarian
  TGI: > 32.8 µM
MDA-MB-231 breast
  TGI: > 56 µM
OVCAR-5 ovarian
  TGI: > 100 µM
UACC-257 melanoma
  TGI: > 100 µM
SNB-75 CNS
  TGI: 7.22 µM
K-562 leukemia
  TGI: > 100 µM
SF-539 CNS
  TGI: 8 µM
HT29 colon
  TGI: 6.78 µM
NCI-H226 lung
  TGI: > 28.2 µM
